Assay results published in the NIST ThermoML archive (doi:10.1021/je060082s).
Values joined by “and” are separate entries in the source; they are usually repeats but may differ in a detail not shown here. Equal values may be shown once. ± gives the expanded uncertainty stated by the source.

Conditions: Liquid; for mass density: 101.33 kPa, Vibrating tube method

CCCCCCCC[n+]1ccn(C)c1.F[B-](F)(F)F [1-methyl-3-octylimidazolium tetrafluoroborate]
Conditions	mass density [kg/m3]
273.1 K	1120.96 ± 3
278.1 K	1117.48 ± 2.9
283.1 K	1114.01 ± 2.9
288.15 K	1110.55 ± 2.9
293.15 K	1107.11 ± 2.9
298.15 K	1103.68 ± 2.9
303.15 K	1100.24 ± 2.9
313.15 K	1093.37 ± 2.9
323.15 K	1086.56 ± 2.9
333.15 K	1079.83 ± 2.8
343.15 K	1073.18 ± 2.8
353.15 K	1066.6 ± 2.8
363.15 K	1060.08 ± 2.8

Conditions	viscosity
273.15 K, 100 kPa	2291 ± 57 mPa·s and 2289 ± 57 mPa·s
278.15 K, 100 kPa	1477 ± 37 mPa·s and 1478 ± 37 mPa·s
283.15 K, 100 kPa	982 ± 25 mPa·s
288.15 K, 100 kPa	673 ± 17 mPa·s
293.15 K, 100 kPa	473 ± 12 mPa·s
298.15 K, 100 kPa	341 ± 9 mPa·s
298.15 K, 11200 kPa	393 ± 10 mPa·s
298.15 K, 26200 kPa	475.7 ± 12 mPa·s
298.15 K, 50500 kPa	638.3 ± 16 mPa·s
298.15 K, 51500 kPa	645.9 ± 16 mPa·s
298.15 K, 60800 kPa	720.1 ± 18 mPa·s
298.15 K, 80200 kPa	902.3 ± 23 mPa·s
298.15 K, 100200 kPa	1130 ± 28 mPa·s
298.15 K, 116700 kPa	1359 ± 34 mPa·s
298.15 K, 117500 kPa	1371 ± 34 mPa·s
303.15 K, 100 kPa	251 ± 7 mPa·s
308.15 K, 100 kPa	188.4 ± 5.1 mPa·s [middle of 5 runs]
308.15 K, 800 kPa	190.1 ± 5.2 mPa·s
308.15 K, 2900 kPa	194.9 ± 5.3 mPa·s
308.15 K, 5600 kPa	204.3 ± 5.5 mPa·s
308.15 K, 10900 kPa	214.2 ± 5.7 mPa·s
308.15 K, 26000 kPa	255.1 ± 6.7 mPa·s
308.15 K, 50700 kPa	337.1 ± 8.7 mPa·s
308.15 K, 76200 kPa	444 ± 11 mPa·s
308.15 K, 100300 kPa	571.1 ± 14 mPa·s
308.15 K, 124400 kPa	731.7 ± 18 mPa·s
308.15 K, 150200 kPa	945.5 ± 24 mPa·s
308.15 K, 200100 kPa	1527 ± 38 mPa·s
313.15 K, 100 kPa	144.1 ± 4.1 mPa·s
323.15 K, 100 kPa	88.8 ± 3 mPa·s and 88.7 ± 3 mPa·s
323.15 K, 700 kPa	89.2 ± 3 mPa·s
323.15 K, 4900 kPa	93.5 ± 3.1 mPa·s
323.15 K, 10500 kPa	99.3 ± 3.2 mPa·s
323.15 K, 25800 kPa	118.2 ± 3.6 mPa·s
323.15 K, 50800 kPa	150.1 ± 4.3 mPa·s
323.15 K, 75700 kPa	191.2 ± 5.2 mPa·s
323.15 K, 100600 kPa	241.8 ± 6.4 mPa·s
323.15 K, 125500 kPa	303.1 ± 7.8 mPa·s
323.15 K, 149900 kPa	376.5 ± 9.6 mPa·s
323.15 K, 175500 kPa	469.8 ± 12 mPa·s
323.15 K, 199800 kPa	577.3 ± 15 mPa·s
333.15 K, 100 kPa	57.8 ± 2.5 mPa·s
333.15 K, 10800 kPa	64.4 ± 2.6 mPa·s
333.15 K, 25700 kPa	74.6 ± 2.7 mPa·s
333.15 K, 50300 kPa	94.3 ± 3.1 mPa·s
333.15 K, 75600 kPa	118.7 ± 3.6 mPa·s
333.15 K, 100500 kPa	147.7 ± 4.2 mPa·s
333.15 K, 125300 kPa	182.5 ± 5 mPa·s
333.15 K, 150200 kPa	224.3 ± 6 mPa·s
333.15 K, 175100 kPa	274.4 ± 7.1 mPa·s
333.15 K, 200000 kPa	334.1 ± 8.6 mPa·s
343.15 K, 100 kPa	39.4 ± 2.2 mPa·s
348.15 K, 100 kPa	32.8 ± 2.2 mPa·s
348.15 K, 300 kPa	32.7 ± 2.2 mPa·s
348.15 K, 1600 kPa	33.2 ± 2.2 mPa·s
348.15 K, 3100 kPa	33.7 ± 2.2 mPa·s
348.15 K, 5400 kPa	34.4 ± 2.2 mPa·s
348.15 K, 10200 kPa	36 ± 2.2 mPa·s
348.15 K, 25600 kPa	41.4 ± 2.3 mPa·s
348.15 K, 50300 kPa	51.5 ± 2.4 mPa·s
348.15 K, 75600 kPa	63.6 ± 2.6 mPa·s
348.15 K, 100500 kPa	77.7 ± 2.8 mPa·s
348.15 K, 125400 kPa	94.3 ± 3.1 mPa·s
348.15 K, 150400 kPa	114.3 ± 3.5 mPa·s
348.15 K, 175300 kPa	136.8 ± 4 mPa·s
348.15 K, 200200 kPa	163.6 ± 4.6 mPa·s
348.15 K, 224200 kPa	193.7 ± 5.2 mPa·s
353.15 K, 100 kPa	28.1 ± 2.1 mPa·s

CCCCCCCC[n+]1ccn(C)c1.F[P-](F)(F)(F)(F)F [1-octyl-3-methylimidazolium hexafluorophosphate]
Conditions	mass density
273.1 K	1256.13 ± 3.3 kg/m3
278.1 K	1252.25 ± 3.3 kg/m3
283.1 K	1248.38 ± 3.3 kg/m3
288.15 K	1244.52 ± 3.3 kg/m3
293.15 K	1240.68 ± 3.3 kg/m3
298.15 K	1236.84 ± 3.3 kg/m3 and 1236.75 ± 3.3 kg/m3
303.15 K	1233.01 ± 3.2 kg/m3
313.15 K	1225.34 ± 3.2 kg/m3
323.15 K	1217.7 ± 3.2 kg/m3 and 1217.68 ± 3.2 kg/m3
333.15 K	1210.29 ± 3.2 kg/m3
343.15 K	1202.88 ± 3.2 kg/m3
353.15 K	1195.49 ± 3.1 kg/m3
363.15 K	1188.13 ± 3.1 kg/m3

Conditions	viscosity
273.15 K, 100 kPa	6410 ± 160 mPa·s
278.15 K, 100 kPa	3889 ± 97 mPa·s
283.15 K, 100 kPa	2439 ± 61 mPa·s
293.15 K, 100 kPa	1065 ± 27 mPa·s
298.15 K, 100 kPa	734.4 ± 18 mPa·s and 731.6 ± 18 mPa·s
298.15 K, 10200 kPa	853.7 ± 21 mPa·s
298.15 K, 24600 kPa	1041 ± 26 mPa·s
298.15 K, 39900 kPa	1299 ± 33 mPa·s
303.15 K, 100 kPa	519.3 ± 13 mPa·s
308.15 K, 100 kPa	374.6 ± 9.6 mPa·s and 370.9 ± 9.5 mPa·s
308.15 K, 5500 kPa	404.3 ± 10 mPa·s
308.15 K, 9900 kPa	430.2 ± 11 mPa·s
308.15 K, 25600 kPa	531.2 ± 13 mPa·s
308.15 K, 48400 kPa	716.3 ± 18 mPa·s
308.15 K, 74900 kPa	1008 ± 25 mPa·s
313.15 K, 100 kPa	276.8 ± 7.2 mPa·s
323.15 K, 100 kPa	158 ± 4.5 mPa·s and 159 ± 4.5 mPa·s and 159.2 ± 4.5 mPa·s
323.15 K, 24800 kPa	217.5 ± 5.8 mPa·s
323.15 K, 26300 kPa	222 ± 5.9 mPa·s
323.15 K, 49900 kPa	295 ± 7.7 mPa·s
323.15 K, 60500 kPa	348.9 ± 9 mPa·s
323.15 K, 74800 kPa	395 ± 10 mPa·s
323.15 K, 76000 kPa	404.2 ± 10 mPa·s
323.15 K, 99700 kPa	524.6 ± 13 mPa·s
333.15 K, 100 kPa	97 ± 3.2 mPa·s and 97.9 ± 3.2 mPa·s and 97.8 ± 3.2 mPa·s
333.15 K, 13500 kPa	115.2 ± 3.5 mPa·s
333.15 K, 30300 kPa	140.6 ± 4 mPa·s
333.15 K, 50400 kPa	176.2 ± 4.8 mPa·s
333.15 K, 75100 kPa	230.4 ± 6.1 mPa·s
333.15 K, 100400 kPa	300.7 ± 7.8 mPa·s
333.15 K, 125200 kPa	387.3 ± 9.9 mPa·s
343.15 K, 100 kPa	63.7 ± 2.6 mPa·s [middle of 4 runs]
343.15 K, 10000 kPa	70 ± 2.7 mPa·s
343.15 K, 21300 kPa	81 ± 2.8 mPa·s
343.15 K, 51800 kPa	112.7 ± 3.5 mPa·s
343.15 K, 72900 kPa	138.7 ± 4 mPa·s
343.15 K, 100300 kPa	182.6 ± 5 mPa·s
343.15 K, 125900 kPa	233.7 ± 6.2 mPa·s
343.15 K, 148800 kPa	296.2 ± 7.7 mPa·s
343.15 K, 175900 kPa	378.4 ± 9.7 mPa·s
353.15 K, 100 kPa	43 ± 2.3 mPa·s
